According to patent publication US20260193268A1, “TRICYCLIC PI3Ka INHIBITOR, PREPARATION METHOD THEREFOR, AND PHARMACEUTICAL USE THEREOF” (WIGEN BIOMEDICINE TECHNOLOGY (SHANGHAI) CO., LTD., priority 2022, published 2026):
Like-named read-outs stand apart in the source and are kept apart here.

Tests used:
[1] = system: HCC1954 cells (with PI3Kα H1047R mutation); assay: In vitro inhibition of HCC1954 cell proliferation (CellTiter-Lumi); format: cell-based; details: Homo sapiens, HCC1954, 144 h
Description: Assay for In Vitro Inhibition of HCC1954 Cell Proliferation by Compounds of the Present Disclosure
The growth of the cells was evaluated, and the IC50 for the inhibition of cell growth by the compounds was calculated.

[2] = system: MCF-7 cells (with PI3Kα E545K mutation); assay: In vitro inhibition of MCF-7 cell proliferation (CellTiter-Lumi); format: cell-based; details: Homo sapiens, MCF7, 144 h
Method in brief: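 Growth IC50 derived from ATP luminescence (CellTiter-Lumi) after 144 h exposure of MCF-7 cells carrying PI3Kα E545K, plated 2000 cells/well and dosed with serial dilutions one day after seeding.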

[3] = HCC1954 cells, 144 h, CellTiter-Lumi, class symbols, read-out: Inhibitory activity against HCC1954 cells (IC50), class symbols
[4] = class symbols, read-out: Inhibitory activity against MCF-7 cells (IC50), class symbols
[5] = HCC1954 cells, 144 h, CellTiter-Lumi, numeric values, read-out: Inhibitory activity against HCC1954 cells (IC50)
[6] = numeric values, read-out: Inhibitory activity against MCF-7 cells (IC50)

| SMILES | IC50 [1, 3] | IC50 [2, 4] | IC50 [1, 5] | IC50 [2, 6] | IC50 ([1]; read-out: Inhibitory activity against HCC1954 cells (IC50), class symbols) |
| --- | --- | --- | --- | --- | --- |
| CC1(C=C(C#N)C(=O)Nc2ccc(N3CC(N4CCN(c5ccc6c(c5)-c5nc(N7C(=O)OC[C@H]7C(F)F)cn5CCO6)CC4)C3)c(F)c2)COC1 [Compound 233] | < 50 nM | < 50 nM |  |  |  |
| C=C(C)C(=O)Nc1ccc(N2CC(N3CCN(c4ccc5c(c4)-c4nc(N6C(=O)OC[C@H]6C(F)F)cn4CCO5)CC3)C2)cc1 [Compound 100] |  |  | 66 nM | 22 nM |  |
| C=CC(=O)Nc1ccc(N2CC(N3CCN(c4ccc5c(c4)-c4nc(N6C(=O)OC[C@H]6C)cn4CCO5)CC3)C2)cc1 [Compound 131] |  |  | 84 nM | 15 nM |  |
| COC(C)(C)C=C(C#N)C(=O)Nc1ccc(N2CC(N3CCN(c4ccc5c(c4)-c4nc(N6C(=O)OC[C@H]6C(F)F)cn4CCO5)CC3)C2)nc1 [Compound 249] | < 50 nM | < 50 nM |  |  |  |
| CNC1(C=C(C#N)C(=O)Nc2ccc(N3CC(N4CCN(c5ccc6c(c5)-c5nc(N7C(=O)OC[C@H]7C(F)F)cn5CCO6)CC4)C3)cc2)CCC1 [Compound 392] | < 50 nM | < 50 nM |  |  |  |
| CC(C)n1ncnc1-c1cn2c(n1)-c1cc(N3CCN(C4CN(c5ccc(NC(=O)C(C#N)=CC(C)(C)C)cn5)C4)CC3)ccc1OCC2 [Compound 371] | < 50 nM | < 50 nM |  |  |  |
| CNC(C)(C)C=C(C#N)C(=O)Nc1ccc(N2CC(N3CCN(c4ccc5c(c4)-c4nc(N6C(=O)OC[C@H]6C(F)F)cn4CCO5)CC3)C2)cn1 [Compound 298] | < 50 nM | < 50 nM |  |  |  |
| CC(C)(C=C(C#N)C(=O)Nc1ccc(N2CC(N3CCN(c4ccc5c(c4)-c4nc(N6C(=O)OC[C@H]6C(F)F)cn4CCO5)CC3)C2)c(F)c1)NC(=O)OC(C)(C)C [Compound 345] | < 50 nM | < 50 nM |  |  |  |
| CC1(C=C(C#N)C(=O)Nc2ccc(N3CC(N4CCN(c5ccc6c(c5)-c5nc(N7C(=O)OC[C@H]7C(F)F)cn5CCO6)CC4)C3)nc2)COC1 [Compound 251] | < 50 nM | < 50 nM |  |  |  |
| COCCN1CCN(C(C)(C)C=C(C#N)C(=O)Nc2ccc(N3CC(N4CCN(c5ccc6c(c5)-c5nc(N7C(=O)OC[C@H]7C(F)F)cn5CCO6)CC4)C3)cc2)CC1 [Compound 305] | < 50 nM | < 50 nM |  |  |  |
| C=CC(=O)Nc1ccc(N2CC(N3CCN(c4ccc5c(c4)-c4nc(N6C(=O)OC[C@H]6C(F)F)cn4CCO5)CC3)C2)cc1OC [Compound 173] |  |  | 4 nM | 0.3 nM |  |
| CC(C)(C)C=C(C#N)C(=O)Nc1ccc(N2CC(N3CCN(c4ccc5c(c4)-c4nc(N6C(=O)OC[C@H]6C(F)F)cn4CCO5)CC3)C2)cc1 [Compound 136] |  |  | 71 nM | 29 nM |  |
| C=CC(=O)N1CC[C@@H](CN2CC(CN3CCN(c4ccc5c(c4)-c4nc(N6C(=O)OC[C@H]6C(F)F)cn4CCO5)CC3)C2)C1 [Compound 37] |  |  | 750 nM | 75 nM |  |
| C=CC(=O)N1CC(N2CC(CN3CCN(c4ccc5c(c4)-c4nc(N6C(=O)OC[C@H]6C(F)F)cn4CCO5)CC3)C2)C1 [Compound 60] |  |  | 174 nM | 13 nM |  |
| C=CC(=O)Nc1ccc(N2CC(N3CCN(c4ccc5c(c4)-c4nc(N6C(=O)OC[C@H]6C(F)F)cn4CCO5)CC3)C2)cc1Cl [Compound 194] |  |  | 1.2 nM | 0.1 nM |  |
| CC(C)(N)C=C(C#N)C(=O)Nc1ccc(N2CC(N3CCN(c4ccc5c(c4)-c4nc(N6C(=O)OC[C@H]6C(F)F)cn4CCO5)CC3)C2)nn1 [Compound 297] | < 50 nM | < 50 nM |  |  |  |
| C=CC(=O)Nc1ccc2c(c1)CCN(C1CCN(c3ccc4c(c3)-c3nc(N5C(=O)OC[C@H]5C(F)F)cn3CCO4)CC1)C2 [Compound 204] | 50 to 100 nM | < 50 nM |  |  |  |
| Cc1nc(-c2cn3c(n2)-c2cc(N4CCN(C5CN(c6ccc(NC(=O)C(C#N)=CC(C)(C)C)cn6)C5)CC4)ccc2OCC3)n(C(C)C)n1 [Compound 368] | < 50 nM | < 50 nM |  |  |  |
| CC(C)(C=C(C#N)C(=O)Nc1ccc(N2CC(N3CCN(c4ccc5c(c4)-c4nc(N6C(=O)OC[C@H]6C(F)F)cn4CCO5)CC3)C2)cc1)N1CC2(COC2)C1 [Compound 141] |  |  | 6.7 nM | 0.6 nM |  |
| CNC(C)(C)C=C(C#N)C(=O)Nc1ccc(N2CC(N3CCN(c4ccc5c(c4)-c4nc(N6C(=O)OC[C@H]6C(F)F)cn4CCO5)CC3)C2)cc1 [Compound 145] |  |  | 0.6 nM | 0.1 nM |  |

| SMILES | IC50 [1, 3] | IC50 [2, 4] | IC50 [1, 5] | IC50 [2, 6] | IC50 ([1]; read-out: Inhibitory activity against HCC1954 cells (IC50), class symbols) |
| --- | --- | --- | --- | --- | --- |
| C=CC(=O)Nc1ccc(N2CC(CN3CC4(C3)CN(c3ccc5c(c3)-c3nc(N6C(=O)OC[C@H]6C(F)F)cn3CCO5)C4)C2)cc1 [Compound 25] |  |  | > 1000 nM | 390 nM |  |
| CNC1(C=C(C#N)C(=O)Nc2ccc(N3CC(N4CCN(c5ccc6c(c5)-c5nc(N7C(=O)OC[C@H]7C(F)F)cn5CCO6)CC4)C3)c(F)c2)CC1 [Compound 237] | < 50 nM | < 50 nM |  |  |  |
| CC(C)(C=C(C#N)C(=O)Nc1ccc(N2CC(N3CCN(c4ccc5c(c4)-c4nc(N6C(=O)OC[C@H]6C(F)F)cn4CCO5)CC3)C2)c(F)c1)N1CCOCC1 [Compound 222] | < 50 nM | < 50 nM |  |  |  |
| Cc1nc(-c2cn3c(n2)-c2cc(N4CCN(C5CN(c6ccc(NC(=O)C(C#N)=CC(C)(C)NC(=O)OC(C)(C)C)cn6)C5)CC4)ccc2OCC3)n(C(C)C)n1 [Compound 372] | < 50 nM | < 50 nM |  |  |  |
| CC(C)(C=C(C#N)C(=O)Nc1ccc(N2CC(N3CCN(c4ccc5c(c4)-c4nc(N6C(=O)OC[C@H]6C(F)F)cn4CCO5)CC3)C2)cc1)N1CCC2(CC1)COC2 [Compound 312] | < 50 nM | < 50 nM |  |  |  |
| COCCNC(C)(C)C=C(C#N)C(=O)Nc1ccc(N2CC(N3CCN(c4ccc5c(c4)-c4nc(N6C(=O)OC[C@H]6C(F)F)cn4CCO5)CC3)C2)nc1 [Compound 250] | < 50 nM | < 50 nM |  |  |  |
| C=CC(=O)Nc1ccc(N2CC(N3CCN(c4ccc5c(c4)-c4nc(N6C(=O)OC[C@H]6C(F)F)cn4CCO5)CC3)C2)c(C)n1 [Compound 151] |  |  | 5.6 nM | 0.3 nM |  |
| C=CC(=O)N1CCc2sc(N3CC(N4CCN(c5ccc6c(c5)-c5nc(N7C(=O)OC[C@H]7C(F)F)cn5CCO6)CC4)C3)nc2C1 [Compound 155] |  |  | 44 nM | 5.1 nM |  |
| C=CC(=O)Nc1ccc2c(c1)CCN(CC#Cc1ccc3c(c1)-c1nc(N4C(=O)OC[C@H]4C(F)F)cn1CCO3)C2 [Compound 200] | 50 to 100 nM | < 50 nM |  |  |  |
| C=CC(=O)Nc1cnc(N2CC(N3CCN(c4ccc5c(c4)-c4nc(N6C(=O)OC[C@H]6C(F)F)cn4CCO5)CC3)C2)cc1C [Compound 217] | < 50 nM | < 50 nM |  |  |  |
| CC(C)(C=C(C#N)C(=O)Nc1ccc(N2CC(N3CCN(c4ccc5c(c4)-c4nc(N6C(=O)OC[C@H]6C(F)F)cn4CCO5)CC3)C2)cc1Cl)NC(=O)OC(C)(C)C [Compound 358] | < 50 nM | < 50 nM |  |  |  |
| CC(C)(C=C(C#N)C(=O)Nc1ccc(N2CC(N3CCN(c4ccc5c(c4)-c4nc(N6C(=O)OC[C@H]6C(F)F)cn4CCO5)CC3)C2)cn1)NC1COC1 [Compound 290] | < 50 nM | < 50 nM |  |  |  |
| C=CC(=O)N1CC(N2CC[C@H](CN3CCN(c4ccc5c(c4)-c4nc(N6C(=O)OC[C@H]6C(F)F)cn4CCO5)CC3)C2)C1 [Compound 92] |  |  | 200 nM | 20 nM |  |
| C=CC(=O)N1CCC(CN2CCC(N3CCN(c4ccc5c(c4)-c4nc(N6C(=O)OC[C@H]6C(F)F)cn4CCO5)CC3)CC2)CC1 [Compound 9] |  |  | > 1000 nM | 75 nM |  |
| C=CC(=O)Nc1ccc(N2CC(N3CCN(c4ccc5c(c4)-c4nc(N6C(=O)OC[C@H]6C(F)F)cn4CCO5)CC3)C2)cc1C [Compound 139] |  |  | 6.7 nM | 0.6 nM |  |
| CN(C)C/C=C/C(=O)Nc1ccc(N2CC(N3CCN(c4ccc5c(c4)-c4nc(N6C(=O)OC[C@H]6C(F)F)cn4CCO5)CC3)C2)cc1Cl [Compound 365] | < 50 nM | < 50 nM |  |  |  |
| CCOP(=O)(NC(C)(C)C=C(C#N)C(=O)Nc1ccc(N2CC(N3CCN(c4ccc5c(c4)-c4nc(N6C(=O)OC[C@H]6C(F)F)cn4CCO5)CC3)C2)cc1)OCC [Compound 332] |  | < 50 nM |  |  | < 50 nM |
| N#CC(=Cc1ccccc1)C(=O)Nc1ccc(N2CC(N3CCN(c4ccc5c(c4)-c4nc(N6C(=O)OC[C@H]6C(F)F)cn4CCO5)CC3)C2)cc1 [Compound 394] | < 50 nM | < 50 nM |  |  |  |
| CN(C1COC1)C(C)(C)C=C(C#N)C(=O)Nc1ccc(N2CC(N3CCN(c4ccc5c(c4)-c4nc(N6C(=O)OC[C@H]6C(F)F)cn4CCO5)CC3)C2)cc1Cl [Compound 361] | < 50 nM | < 50 nM |  |  |  |
